Assay results reported in patent US11331369B2, “Endoparasitic depsipeptides” (Zoetis Services LLC, priority 2017, dated 2022).

Experiments:
Assay type in all cases: cell-based
[1] = tested on: microfilariae of Dirofilaria immitis; assay: Dirofilaria immitis, Microfilaria (DiMF) In vitro Assay; details: 72 h, read-out: DiMF Minimum Effective Dose (MED), approximately 72 hours incubation, microfilariae assessed for survival or paralysis
[2] = tested on: 4th stage larvae (L4) of Dirofilaria immitis; assay: Dirofilaria immitis, L4 Stage (DiL4) In Vitro Assay; details: Dirofilaria immitis, 72 h, read-out: DiL4 Minimum Effective Dose (MED), approximately 72 hours incubation; L4 larvae assessed for survival or paralysis
[3] = tested on: third stage larvae of Haemonchus contortus; assay: Haemonchus contortus L3 (HcL3) Assay; details: 96 h, read-out: HcL3 Minimum Effective Dose (MED)

For `CC(C)C[C@H]1C(=O)O[C@H](Cc2ccc(Cn3nccc3CC3CC3)cc2)C(=O)N(C)[C@@H](CC(C)C)C(=O)O[C@H](C)C(=O)N(C)[C@@H](CC(C)C)C(=O)O[C@H](Cc2ccc(Cn3nccc3CC3CC3)cc2)C(=O)N(C)[C@@H](CC(C)C)C(=O)O[C@H](C)C(=O)N1C` [Example 1b-206, (3S,6R,9S,12R,15S,18R,21S,24R)-6,18-bis(4-((5-(cyclopropylmethyl)-1H-pyrazol-1-yl)methyl)benzyl)-3,9,15,21-tetraisobutyl-4,10,12,16,22,24-hexamethyl-1,7,13,19-tetraoxa-4,10,16,22-tetraazacyclotetracosan-2,5,8,11,14,17,20,23-octaone], the minimal effective concentration [1] was 0.01 to 0.1 µM, the minimal effective concentration [2] was 0.0001 to 0.001 µM and the minimal effective concentration [3] was at most 1 µM.
`Cc1ncc(-c2ccnn2Cc2ccc(C[C@H]3OC(=O)[C@H](CC(C)C)N(C)C(=O)[C@@H](C)OC(=O)[C@H](CC(C)C)N(C)C(=O)[C@@H](Cc4ccc(Cn5nccc5-c5cnc(C)nc5)cc4)OC(=O)[C@H](CC(C)C)N(C)C(=O)[C@@H](C)OC(=O)[C@H](CC(C)C)N(C)C3=O)cc2)cn1` [Example 1b-207, (3S,6R,9S,12R,15S,18R,21S,24R)-3,9,15,21-tetraisobutyl-4,6,10,16,18,22-hexamethyl-12,24-bis(4-((5-(2-methylpyrimidin-5-yl)-1H-pyrazol-1-yl)methyl)benzyl)-1,7,13,19-tetraoxa-4,10,16,22-tetraazacyclotetracosan-2,5,8,11,14,17,20,23-octaone] showed a minimal effective concentration [1] of 0.001 to 0.01 µM, a minimal effective concentration [2] of 0.001 to 0.01 µM and a minimal effective concentration [3] of 1 to 10 µM.
For `CCC(C)c1ccnn1Cc1ccc(C[C@H]2OC(=O)[C@H](CC(C)C)N(C)C(=O)[C@@H](C)OC(=O)[C@H](CC(C)C)N(C)C(=O)[C@@H](Cc3ccc(Cn4nccc4C(C)CC)cc3)OC(=O)[C@H](CC(C)C)N(C)C(=O)[C@@H](C)OC(=O)[C@H](CC(C)C)N(C)C2=O)cc1` (stereo partly drawn) [Example 1b-210, (3S,6R,9S,12R,15S,18R,21S,24R)-6,18-bis(4-((5-(sec-butyl)-1H-pyrazol-1-yl)methyl)benzyl)-3,9,15,21-tetraisobutyl-4,10,12,16,22,24-hexamethyl-1,7,13,19-tetraoxa-4,10,16,22-tetraazacyclotetracosan-2,5,8,11,14,17,20,23-octaone], the minimal effective concentration [1] was 0.01 to 0.1 µM, the minimal effective concentration [2] was 0.0001 to 0.001 µM and the minimal effective concentration [3] was 1 to 10 µM.
Work on `CC(C)C[C@H]1C(=O)O[C@H](Cc2ccc(Cn3nccc3C3(F)CC3)cc2)C(=O)N(C)[C@@H](CC(C)C)C(=O)O[C@H](C)C(=O)N(C)[C@@H](CC(C)C)C(=O)O[C@H](Cc2ccc(Cn3nccc3C3(F)CC3)cc2)C(=O)N(C)[C@@H](CC(C)C)C(=O)O[C@H](C)C(=O)N1C` [Example 1b-215, (3S,6R,9S,12R,15S,18R,21S,24R)-6,18-bis(4-((5-(1-fluorocyclopropyl)-1H-pyrazol-1-yl)methyl)benzyl)-3,9,15,21-tetraisobutyl-4,10,12,16,22,24-hexamethyl-1,7,13,19-tetraoxa-4,10,16,22-tetraazacyclotetracosan-2,5,8,11,14,17,20,23-octaone] yielded a minimal effective concentration [1] of 0.001 to 0.01 µM, a minimal effective concentration [2] of 0.0001 to 0.001 µM and a minimal effective concentration [3] of at most 1 µM.
Work on `CC(C)C[C@H]1C(=O)O[C@H](Cc2ccc(Cn3nccc3C3CC3(F)F)cc2)C(=O)N(C)[C@@H](CC(C)C)C(=O)O[C@H](C)C(=O)N(C)[C@@H](CC(C)C)C(=O)O[C@H](Cc2ccc(Cn3nccc3C3CC3(F)F)cc2)C(=O)N(C)[C@@H](CC(C)C)C(=O)O[C@H](C)C(=O)N1C` (stereo partly drawn) [Example 1b-216, (3S,6R,9S,12R,15S,18R,21S,24R)-6,18-bis(4-((5-(2,2-difluorocyclopropyl)-1H-pyrazol-1-yl)methyl)benzyl)-3,9,15,21-tetraisobutyl-4,10,12,16,22,24-hexamethyl-1,7,13,19-tetraoxa-4,10,16,22-tetraazacyclotetracosan-2,5,8,11,14,17,20,23-octaone] yielded a minimal effective concentration [1] of 0.001 to 0.01 µM, a minimal effective concentration [2] of at most 0.0001 µM and a minimal effective concentration [3] of at most 1 µM.
Work on `CC(C)C[C@H]1C(=O)O[C@H](Cc2ccc(Cn3nccc3C3(Cl)CC3)cc2)C(=O)N(C)[C@@H](CC(C)C)C(=O)O[C@H](C)C(=O)N(C)[C@@H](CC(C)C)C(=O)O[C@H](Cc2ccc(Cn3nccc3C3(Cl)CC3)cc2)C(=O)N(C)[C@@H](CC(C)C)C(=O)O[C@H](C)C(=O)N1C` [Example 1b-217, (3S,6R,9S,12R,15S,18R,21S,24R)-6,18-bis(4-((5-(1-chlorocyclopropyl)-1H-pyrazol-1-yl)methyl)benzyl)-3,9,15,21-tetraisobutyl-4,10,12,16,22,24-hexamethyl-1,7,13,19-tetraoxa-4,10,16,22-tetraazacyclotetracosan-2,5,8,11,14,17,20,23-octaone] yielded a minimal effective concentration [1] of 0.01 to 0.1 µM, a minimal effective concentration [2] of 0.0001 to 0.001 µM and a minimal effective concentration [3] of at most 1 µM.
Work on `CC(C)C[C@H]1C(=O)O[C@H](Cc2ccc(Cn3nccc3C3(C)CC3)cc2)C(=O)N(C)[C@@H](CC(C)C)C(=O)O[C@H](C)C(=O)N(C)[C@@H](CC(C)C)C(=O)O[C@H](Cc2ccc(Cn3nccc3C3(C)CC3)cc2)C(=O)N(C)[C@@H](CC(C)C)C(=O)O[C@H](C)C(=O)N1C` [Example 1b-219, (3S,6R,9S,12R,15S,18R,21S,24R)-3,9,15,21-tetraisobutyl-4,6,10,16,18,22-hexamethyl-12,24-bis(4-((5-(1-methylcyclopropyl)-1H-pyrazol-1-yl)methyl)benzyl)-1,7,13,19-tetraoxa-4,10,16,22-tetraazacyclotetracosan-2,5,8,11,14,17,20,23-octaone] yielded a minimal effective concentration [1] of 0.01 to 0.1 µM, a minimal effective concentration [2] of 0.0001 to 0.001 µM and a minimal effective concentration [3] of at most 1 µM.
With `COC(C)(C)c1ccnn1Cc1ccc(C[C@H]2OC(=O)[C@H](CC(C)C)N(C)C(=O)[C@@H](C)OC(=O)[C@H](CC(C)C)N(C)C(=O)[C@@H](Cc3ccc(Cn4nccc4C(C)(C)OC)cc3)OC(=O)[C@H](CC(C)C)N(C)C(=O)[C@@H](C)OC(=O)[C@H](CC(C)C)N(C)C2=O)cc1` [Example 1b-220, (3S,6R,9S,12R,15S,18R,21S,24R)-3,9,15,21-tetraisobutyl-6,18-bis(4-((5-(2-methoxypropan-2-yl)-1H-pyrazol-1-yl)methyl)benzyl)-4,10,12,16,22,24-hexamethyl-1,7,13,19-tetraoxa-4,10,16,22-tetraazacyclotetracosan-2,5,8,11,14,17,20,23-octaone] the minimal effective concentration [1] was 0.001 to 0.01 µM, the minimal effective concentration [2] was 0.001 to 0.01 µM and the minimal effective concentration [3] was 10 to 100 µM.
`CC(C)C[C@H]1C(=O)O[C@H](Cc2ccc(Cn3nccc3C3(C)COC3)cc2)C(=O)N(C)[C@@H](CC(C)C)C(=O)O[C@H](C)C(=O)N(C)[C@@H](CC(C)C)C(=O)O[C@H](Cc2ccc(Cn3nccc3C3(C)COC3)cc2)C(=O)N(C)[C@@H](CC(C)C)C(=O)O[C@H](C)C(=O)N1C` [Example 1b-221, (3S,6R,9S,12R,15S,18R,21S,24R)-3,9,15,21-tetraisobutyl-4,6,10,16,18,22-hexamethyl-12,24-bis(4-((5-(3-methyloxetan-3-yl)-1H-pyrazol-1-yl)methyl)benzyl)-1,7,13,19-tetraoxa-4,10,16,22-tetraazacyclotetracosan-2,5,8,11,14,17,20,23-octaone] gave a minimal effective concentration [1] of 0.001 to 0.01 µM, a minimal effective concentration [2] of 0.001 to 0.01 µM and a minimal effective concentration [3] of 1 to 10 µM.
Compound `CC(C)C[C@H]1C(=O)O[C@H](Cc2ccc(Cn3nccc3C3CC3C)cc2)C(=O)N(C)[C@@H](CC(C)C)C(=O)O[C@H](C)C(=O)N(C)[C@@H](CC(C)C)C(=O)O[C@H](Cc2ccc(Cn3nccc3C3CC3C)cc2)C(=O)N(C)[C@@H](CC(C)C)C(=O)O[C@H](C)C(=O)N1C` (stereo partly drawn) [Example 1b-222, (3S,6R,9S,12R,15S,18R,21S,24R)-3,9,15,21-tetraisobutyl-4,6,10,16,18,22-hexamethyl-12,24-bis(4-((5-(2-methylcyclopropyl)-1H-pyrazol-1-yl)methyl)benzyl)-1,7,13,19-tetraoxa-4,10,16,22-tetraazacyclotetracosan-2,5,8,11,14,17,20,23-octaone] has a minimal effective concentration [1] of 0.01 to 0.1 µM, a minimal effective concentration [2] of 0.0001 to 0.001 µM and a minimal effective concentration [3] of at most 1 µM.
In the case of `CC(C)C[C@H]1C(=O)O[C@H](Cc2ccc(C3(n4cc(Cl)cn4)CCC3)cc2)C(=O)N(C)[C@@H](CC(C)C)C(=O)O[C@H](C)C(=O)N(C)[C@@H](CC(C)C)C(=O)O[C@H](Cc2ccc(C3(n4cc(Cl)cn4)CCC3)cc2)C(=O)N(C)[C@@H](CC(C)C)C(=O)O[C@H](C)C(=O)N1C` [Example 1c-2, (3S,6R,9S,12R,15S,18R,21S,24R)-6,18-bis(4-(1-(4-chloro-1H-pyrazol-1-yl)cyclobutyl)benzyl)-3,9,15,21-tetraisobutyl-4,10,12,16,22,24-hexamethyl-1,7,13,19-tetraoxa-4,10,16,22-tetraazacyclotetracosan-2,5,8,11,14,17,20,23-octaone], the minimal effective concentration [1] is reported as 0.001 to 0.01 µM, the minimal effective concentration [2] is reported as at most 0.0001 µM and the minimal effective concentration [3] is reported as at most 1 µM.
With `CC(C)C[C@H]1C(=O)O[C@H](Cc2ccc(C(C3CC3)n3cc(OC(C)C)cn3)cc2)C(=O)N(C)[C@@H](CC(C)C)C(=O)O[C@H](C)C(=O)N(C)[C@@H](CC(C)C)C(=O)O[C@H](Cc2ccc(C(C3CC3)n3cc(OC(C)C)cn3)cc2)C(=O)N(C)[C@@H](CC(C)C)C(=O)O[C@H](C)C(=O)N1C` (stereo partly drawn) [Example 1c-5, (3S,6R,9S,12R,15S,18R,21S,24R)-6,18-bis(4-(cyclopropyl(4-isopropoxy-1H-pyrazol-1-yl)methyl)benzyl)-3,9,15,21-tetraisobutyl-4,10,12,16,22,24-hexamethyl-1,7,13,19-tetraoxa-4,10,16,22-tetraazacyclotetracosan-2,5,8,11,14,17,20,23-octaone] the minimal effective concentration [1] was 0.001 to 0.01 µM, the minimal effective concentration [2] was 0.0001 to 0.001 µM and the minimal effective concentration [3] was at most 1 µM.
